Source: patent publication US20260207570A1, “OPTIMIZED DOSING OF LERIGLITAZONE” (MINORYX THERAPEUTICS S.L., priority 2022, published 2026)
Where two headings read alike, the source gives them in different places.

How the values were obtained:
[1] = Phase 1 single ascending dose (SAD) pharmacokinetics in healthy volunteers; format: in vivo, human; settings: male, human, oral; for AUC / Cmax / Tmax: 270 mg; for AUC: read-out: AUC, Observed; for Cmax: read-out: Cmax, Observed; for Tmax: read-out: Tmax, Observed
Method: (§1) Study design: A phase 1, randomized, double blind, placebo-controlled, single-center clinical study in 33 male healthy volunteers (HV) (19-54 years, 63.2-95.7 Kg) was conducted with leriglitazone HCl and divided in two parts: a single ascending dose (SAD) with three dose levels (30, 90 and 270 mg) in fasted conditions, followed with two dose levels (90 and 270 mg) in fed conditions; a multiple ascending dose (MAD) with a double-blind, parallel-design with two dose levels (135 and 270 mg) for 8 days and a separate cohort of subjects in an open-label parallel design with two dose levels (135 and 270 mg) including cerebrospinal fluid (CSF) collection on day 8. In the fasted conditions a fasting period of at least 4 hours was required before obtaining plasma samples. The food effect (FE) was assessed by comparing fasted with fed conditions (dosing after a high-fat breakfast per FDA definition with a calculated caloric content of 918 kcal). In the MAD part (fed) the medication was taken before a normal breakfast. Leriglitazone HCl was supplied by ChemConnection and an oral suspension of leriglitazone (20% w/v kleptose, 2% ethanol in 100 mM phosphate buffer pH=7.8) at 6 mg/ml was used in the study.
(§2) Blood, Urine and CSF sampling: In the SAD, blood samples were drawn at the following time points: pre-dose and 0.25, 0.5, 0.75, 1, 1.5, 2, 2.5, 3, 4, 5, 6, 8, 10, 12, 16, 24, 36, 48, 72, 96 and 120 hours post-dose. Urine was collected at pre-dose (within 12 hours prior to dosing) and over 0-6, 6-12, 12-24, 24-36, 36-48 hours post-dose collection intervals. In the MAD, blood samples were collected on day 1 at pre-dose and 0.25, 0.5, 0.75, 1, 1.5, 2, 2.5, 3, 4, 5, 6, 8, 10, 12, and 16 hours post-dose and at pre-dose and at 4 hours post-dose on day 2 to day 7, and on day 8 at pre-dose and 0.25, 0.5, 0.75, 1, 1.5, 2, 2.5, 3, 4, 5, 6, 8, 10, 12, 16, 24, 36, 48, 72, 96 and 120 hours post-dose. CSF were taken on day −1 and on day 8, at 4 hours post-dose.
(§3) Pharmacokinetic parameter calculation: PK parameters (Cmax, Tmax, t1/2, AUC0-t, CL/F, Vz/F, AUC0-t, RAUC, RCmax) were estimated using non-compartmental analysis (NCA) (Phoenix WinNonlin® Version 6.3).
(§4) Statistical analysis: Descriptive statistics for all relevant PK parameters: n, mean, minimum, median, maximum, geometric mean, and coefficient of variation (CV %); analysis of variance on Cmax and AUC to determine dose proportionality and food effect (FE).

[2] = Phase 1 multiple ascending dose (MAD) pharmacokinetics with CSF collection in healthy volunteers; format: in vivo, human; settings: for CSF C4h / concentration at 4 h: total; for accumulation RCmax: day 8 vs day 1; for Vd/F: read-out: Vz/F
Method: as §1, §2, §3, §4
The ratio of unbound leriglitazone concentration in brain to unbound concentration in plasma (Kpu,u; Cb,u/Cp,u) was calculated dividing the unbound CSF Cmax by the unbound plasma Cmax. Fractions unbound in plasma (fu,p) to obtain the unbound Cmax values were already reported. Rodriguez-Pascau, L. et al., Sci. Transl. Med. 13, eabc0555 (2021).

[3] = target: CYP3A4 (Homo sapiens, UniProt P08684); assay: CYP3A4 contribution to clearance (fm, CLint) for the PBPK model
CYP3A4, sequence (P08684 whole entry): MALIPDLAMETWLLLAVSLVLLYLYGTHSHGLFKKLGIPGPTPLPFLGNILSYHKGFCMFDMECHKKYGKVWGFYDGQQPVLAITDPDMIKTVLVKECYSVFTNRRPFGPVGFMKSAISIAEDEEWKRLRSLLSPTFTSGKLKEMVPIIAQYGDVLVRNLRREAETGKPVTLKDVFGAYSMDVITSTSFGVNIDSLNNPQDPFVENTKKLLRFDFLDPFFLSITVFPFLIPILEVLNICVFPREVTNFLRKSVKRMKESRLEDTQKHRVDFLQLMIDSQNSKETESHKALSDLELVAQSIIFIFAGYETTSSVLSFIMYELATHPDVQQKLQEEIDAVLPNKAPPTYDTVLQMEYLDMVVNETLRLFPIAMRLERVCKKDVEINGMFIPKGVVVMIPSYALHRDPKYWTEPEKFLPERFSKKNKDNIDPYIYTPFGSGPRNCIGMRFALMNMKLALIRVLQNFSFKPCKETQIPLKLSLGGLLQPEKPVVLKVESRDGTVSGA
Excerpt: CYP2C8 and CYP3A4 were identified in vitro as the major contributing enzymes of leriglitazone with CYP2C8 mostly responsible for the formation of the main metabolite M3. Kinetic parameters of human CYP2C8 and CYP3A4 mediated metabolism of leriglitazone were studied in in vitro studies using recombinant CYP3A4 and CYP2C8 enzymes (ADMESCOPE, Finland). […] As the disappearance of leriglitazone was very slow especially at high initial concentrations, the accuracy of the fit was not as good as based on M3 formation. […] Thus, it was not possible to fit the kinetic parameters Km and Vmax.

[4] = plasma, single dose 270 mg Fasted

AUC [1, 4]: 369 µg·h/mL | Cmax [1, 4]: 13400 ng/mL | Tmax [1, 4]: 1.5 h | AUC ([1]; plasma, single dose 270 mg Fed): 368 µg·h/mL | Cmax ([1]; plasma, single dose 270 mg Fed): 11500 ng/mL | Tmax ([1]; plasma, single dose 270 mg Fed): 4 h | Vd ([1]; plasma, PBPK model input, estimated from phase 1 SAD data, read-out: Vss): 0.29 L/kg | half-life ([1]; plasma, SAD, read-out: Half-lives): 23 to 24 h | CL renal ([1]; urine, PBPK model input): 0.55 mL/min | CL/F ([2]; 135 mg MD Day 1, n = 8, geometric mean (CV %)): 1.59 (17.8) L./h | CSF C4h ([2]; 135 mg MD Day 8, 4 hours post-dose, geometric mean (CV %)): 188 (15.9) ng/mL | CL/F ([2]; 270 mg MD Day 1, n = 8, geometric mean (CV %)): 1.63 (14.4) L./h | CSF C4h ([2]; 270 mg MD Day 8, 4 hours post-dose, geometric mean (CV %)): 332 (13.4) ng/mL | increase of CSF concentration on doubling the dose ([2]; 270 mg vs 135 mg, day 8, 4 hours post-dose): 1.8 fold | accumulation RCmax ([2]; MAD 135 mg): 1.7 | accumulation RAUC ([2]; MAD 270 mg dose): 1.81 | accumulation RCmax ([2]; MAD 270 mg): 1.7 | time to steady state ([2]; MAD 135 or 270 mg daily, fed): 5 days | CSF Cmax ([2]; human, 135 mg): 188 ng/mL | CSF Cmax ([2]; human, 270 mg): 332 ng/mL | brain penetration ([2]; judged from CSF to plasma concentrations): good | Kp at 4 h ([2]; male, CSF and plasma (unbound), oral, human, 135 mg, unbound CSF Cmax / unbound plasma Cmax, read-out: Kpu, u based on CSF): 0.55 | Kp ([2]; male, CSF and plasma (unbound), oral, human, 270 mg, unbound CSF Cmax / unbound plasma Cmax, read-out: Kpu, u based on CSF): 0.54 | Kp at 4 h ([2]; male, human, CSF and plasma, oral, 135 mg MD Day 8, geometric mean (CV %), read-out: CSF/Plasma): 0.021 | Kp at 4 h ([2]; male, human, CSF and plasma, oral, 270 mg MD Day 8, geometric mean (CV %), read-out: CSF/Plasma): 0.024 | Kp at 4 h ([2]; male, human, CSF and plasma, oral, day 8, 4 hours post-dose, read-out: total concentrations in CSF as share of total plasma concentrations): 0.022 to 0.025 | concentration at 4 h ([2]; male, human, CSF, oral, 135 mg MD Day 8, 4 hours post-dose, geometric mean (CV %), read-out: CSF C4h): 188 ng/mL | concentration at 4 h ([2]; male, human, CSF, oral, 270 mg MD Day 8, 4 hours post-dose, geometric mean (CV %), read-out: CSF C4h): 332 ng/mL | Tmax ([2]; male, human, plasma, oral, 135 mg, 135 mg MD Day 1, n = 8, Median, read-out: Tmax): 3 h | Vd/F ([2]; male, human, plasma, oral, 135 mg, 135 mg MD Day 1, n = 8, geometric mean (CV %)): 47.1 L | Cmax ([2]; male, human, plasma, oral, 135 mg, 135 mg MD Day 1, n = 8, plasma total, geometric mean, read-out: Cmax): 5430 ng/mL | Tmax ([2]; male, human, plasma, oral, 135 mg, 135 mg MD Day 8, n = 8, Median, read-out: Tmax): 4 h | Vd/F ([2]; male, human, plasma, oral, 135 mg, 135 mg MD Day 8, n = 8, geometric mean (CV %)): 27.7 L | Cmax ([2]; male, human, plasma, oral, 135 mg, 135 mg MD Day 8, n = 8, plasma total, geometric mean, read-out: Cmax): 9500 ng/mL | AUC ([2]; male, human, plasma, oral, 135 mg, 135 mg daily, fed, Day 1, read-out: AUC, Observed): 85.1 µg·h/mL | Cmax ([2]; male, human, plasma, oral, 135 mg, 135 mg daily, fed, Day 1, read-out: Cmax, Observed): 5490 ng/mL | Tmax ([2]; male, human, plasma, oral, 135 mg, 135 mg daily, fed, Day 1, read-out: Tmax, Observed): 3 h | AUC ([2]; male, human, plasma, oral, 135 mg, 135 mg daily, fed, Day 8, read-out: AUC, Observed): 145 µg·h/mL | Cmax ([2]; male, human, plasma, oral, 135 mg, 135 mg daily, fed, Day 8, read-out: Cmax, Observed): 9490 ng/mL | Tmax ([2]; male, human, plasma, oral, 135 mg, 135 mg daily, fed, Day 8, read-out: Tmax, Observed): 4 h | AUC ([2]; male, human, plasma, oral, 135 mg, human, 135 mg, read-out: Total plasma AUC): 145 µg·h/mL | Cmax ([2]; male, human, plasma, oral, 135 mg, human, 135 mg, read-out: Total plasma Cmax): 9490 ng/mL | Tmax ([2]; male, human, plasma, oral, 270 mg, 270 mg MD Day 1, n = 8, Median, read-out: Tmax): 3 h | Vd/F ([2]; male, human, plasma, oral, 270 mg, 270 mg MD Day 1, n = 8, geometric mean (CV %)): 52.7 L | Cmax ([2]; male, human, plasma, oral, 270 mg, 270 mg MD Day 1, n = 8, plasma total, geometric mean, read-out: Cmax): 10000 ng/mL | Tmax ([2]; male, human, plasma, oral, 270 mg, 270 mg MD Day 8, n = 7, Median, read-out: Tmax): 4 h | Vd/F ([2]; male, human, plasma, oral, 270 mg, 270 mg MD Day 8, n = 7, geometric mean (CV %)): 29.5 L | Cmax ([2]; male, human, plasma, oral, 270 mg, 270 mg MD Day 8, n = 7, plasma total, geometric mean, read-out: Cmax): 17000 ng/mL | AUC ([2]; male, human, plasma, oral, 270 mg, 270 mg daily, fed, Day 1, read-out: AUC, Observed): 165 µg·h/mL | Cmax ([2]; male, human, plasma, oral, 270 mg, 270 mg daily, fed, Day 1, read-out: Cmax, Observed): 10000 ng/mL | Tmax ([2]; male, human, plasma, oral, 270 mg, 270 mg daily, fed, Day 1, read-out: Tmax, Observed): 3 h | AUC ([2]; male, human, plasma, oral, 270 mg, 270 mg daily, fed, Day 8, read-out: AUC, Observed): 299 µg·h/mL | Cmax ([2]; male, human, plasma, oral, 270 mg, 270 mg daily, fed, Day 8, read-out: Cmax, Observed): 17200 ng/mL | Tmax ([2]; male, human, plasma, oral, 270 mg, 270 mg daily, fed, Day 8, read-out: Tmax, Observed): 4 h | AUC ([2]; male, human, plasma, oral, 270 mg, human, 270 mg, read-out: Total plasma AUC): 299 µg·h/mL | Cmax ([2]; male, human, plasma, oral, 270 mg, human, 270 mg, read-out: Total plasma Cmax): 17200 ng/mL | concentration at 4 h ([2]; male, human, plasma, oral, 270 mg MD Day 8, 4 hours post-dose, geometric mean (CV %), read-out: Plasma C4h): 14200 ng/mL | mean CL/F ([2]; phase 1 MAD part day 8): 0.93 L/h | CLint, CYP3A4 ([3]; PBPK model input, calculated from estimated fm and mean CL/F): 0.0097 µL/min/pmol | share of metabolism, CYP3A4 ([3]; before accounting for biliary and renal clearance): 30%
Structure (SMILES): CC(O)c1ccc(CCOc2ccc(CC3SC(=O)NC3=O)cc2)nc1 (stereo not drawn) [Leriglitazone, 5-[[4-[2-[5-(1-hydroxyethyl)pyridin-2-yl]ethoxy]phenyl]methyl]-1,3-thiazolidine-2,4-dione]
